Data published in patent US8309685B2 (Celgene Avilomics Research, Inc., priority 2007, dated 2012).
Where two headings read alike, the source gives them in different places.

Tests used:
[1] = target: T1, wild type HCV NS3/4A 1b protease enzyme (Hepatitis C virus genotype 1b, UniProt P26663); assay: HCV Protease FRET Assay (IC50_APP), wild type; format: biochemical; details: read-out: IC50_APP, WT; apparent IC50, wild type NS3/4A 1b
T1 construct: 10× stocks of NS3/4A protease enzyme from Bioenza (Mountain View, Calif.); purchased Bioenza (Mountain View, Calif.)

[2] = target: T1, wild type HCV NS3/4A 1b protease enzyme; assay: biochemical; format: biochemical; details: read-out: Inhibition, WT; WT enzyme, FRET assay
[3] = test system: cell line ET (luc-ubi-neo/ET), human Huh7 hepatoma cell line; assay: Method A: cytotoxicity in ET replicon cells (CytoTox-1); format: cell-based; details: concentration decreasing cell viability by 50%, 72 hr
Protocol: The compounds were assayed to evaluate the antiviral activity and cytotoxicity of compounds in vitro using HCV RNA replicons. This assay used the cell line ET (luc-ubi-neo/ET), which is a human Huh7 hepatoma cell line that contains an HCV RNA replicon with a stable luciferase (Luc) reporter and three cell culture-adaptive mutations. […]
The ET cell line was grown in Dulbecco's modified essential media (DMEM), 10% fetal bovine serum (FBS), 1% penicillin-streptomycin (pen-strep), 1% glutamine, 250 μg/ml G418 in a 5% CO2 incubator at 37° C. All cell culture reagents were obtained from Mediatech (Manassas, Va.). Cells were trypsinized (1% trypsin:EDTA) and plated out at 5×10^3 cells/well in white 96-well assay plates (Costar) dedicated to cell number (cytotoxicity) or antiviral activity assessments. Drugs were added at six 3-fold concentrations each and the assay was run in DMEM, 5% FBS, 1% pen-strep, 1% glutamine. Human interferon alpha-2b (PBL Biolabs, New Brunswick, N.J.) was included in each run as a positive control compound. Cells were processed 72 hr post drug addition when the cells are still subconfluent. Antiviral activity was measured by analyzing replicon-derived luciferase activity using the Steady-Glo Luciferase Assay System (Promega, Madison, Wis.) according to manufacturer's instruction. The number of cells in each well was determined by CytoTox-1 reagent (Promega). […].

[4] = target: T2, D168A mutant of the HCV NS3/4A 1b protease enzyme (Hepatitis C virus genotype 1b, UniProt P26663, D1194A); assay: HCV Protease FRET Assay (IC50), D168A mutant; format: biochemical; details: read-out: Inhibition, HCV D168A; D168A enzyme, FRET assay
T2 construct: 10× stocks of NS3/4A protease enzyme from Bioenza (Mountain View, Calif.); purchased Bioenza (Mountain View, Calif.)

[5] = target: T2, D168A mutant of the HCV NS3/4A 1b protease enzyme; assay: HCV Protease FRET Assay (IC50_APP), D168A mutant; format: biochemical
[6] = target: T3, A156T mutant of the HCV NS3/4A 1b protease enzyme (Hepatitis C virus genotype 1b, UniProt P26663, A1182T); assay: HCV Protease FRET Assay (IC50), A156T mutant; format: biochemical; details: read-out: Inhibition, HCV A156T; A156T enzyme, FRET assay
T3 construct: 10× stocks of NS3/4A protease enzyme from Bioenza (Mountain View, Calif.); purchased Bioenza (Mountain View, Calif.)
Protocol: HCV Protease FRET Assay for Wild Type and Mutated NS3/4A 1b Enzymes (IC50)
The protocol is a modified FRET-based assay (v—02) from In Vitro Resistance Studies of HCV Serine Protease Inhibitors, 2004, JBC, vol. 279, No. 17, pp 17508-17514.
10× stocks of NS3/4A protease enzyme from Bioenza (Mountain View, Calif.) and 1.13× 5-FAM/QXL™ 520 FRET peptide substrate from Anaspec (San Jose, Calif.) were prepared in 50 mM HEPES, pH 7.8, 100 mM NaCl, 5 mM DTT and 20% glycerol. 5 μL of each enzyme were pre-incubated in a Corning (#3573) 384-well, black, non-treated microtiter plate (Corning, N.Y.) for 30 min at 25° C. with a 0.5 μL volume of 50% DMSO and serially diluted compounds prepared in 50% DMSO. Protease reactions were started with the addition of 45 μL of the FRET substrate and monitored for 120 minutes at λex487/λem514 through Quad^4 monochromoters in a Synergy^4 plate reader from BioTek (Winooski, Vt.). At the conclusion of each assay, progress curves from each well were examined for linear reaction kinetics and fit statistics (R^2, absolute sum of squares). Initial velocity (0 minutes to 30+ minutes) from each reaction was determined from the slope of a plot of relative fluorescence units vs time (minutes) and then plotted against inhibitor concentration to estimate IC50 from log[Inhibitor] vs Response, Variable Slope model in GraphPad Prism from GraphPad Software (San Diego, Calif.).
The compound numbers correspond to the compound numbers in Table 3. […] ;

[7] = target: T3, A156T mutant of the HCV NS3/4A 1b protease enzyme; assay: HCV Protease FRET Assay (IC50_APP), A156T mutant; format: biochemical
[8] = test system: HCV RNA replicon in cell line ET (luc-ubi-neo/ET), human Huh7 hepatoma; assay: Method A: HCV RNA replicon antiviral assay (luciferase, ET cell line); format: cell-based, Hepatitis C virus; details: Hepatitis C virus, Huh-7
Summary of the method: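 ET replicon cells (Huh7 carrying luciferase-reporter HCV replicon) plated at 5×10^3 cells/well and exposed 72 hr to six 3-fold drug concentrations in DMEM/5% FBS. Replicon luciferase gave EC50/EC90; CytoTox-1 cell counts gave IC50 (viability); […]. Interferon alpha-2b served as positive control.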

[9] = apparent IC50, D168A mutant; read-out: IC50_APP, HCV D168A
[10] = apparent IC50, A156T mutant; read-out: IC50_APP, HCV A156T
[11] = Replicon, assay of Example 22, 72 hr, read-out: Inhibition, Replicon
[12] = assay described in Example 22, read-out: Replicon (IC50)
[13] = read-out: IC50_APP, HCV D168A; apparent IC50, D168A mutant
[14] = read-out: IC50_APP, HCV A156T; apparent IC50, A156T mutant

Row | SMILES | IC50 [1] [nM] | IC50 [2] [nM] | Inhibition, Cytotoxicity [3] | IC50 [4] [nM] | IC50 [5, 9] [nM] | IC50 [6] [nM] | IC50 [7, 10] [nM] | IC90 ([8]; assay described in Example 22) [nM] | IC50 [8, 11] [nM] | IC50 [8, 12] [nM] | IC50 [5, 13] [nM] | IC50 [7, 14] [nM]
1 | C=CC(=O)N(C)CC[C@H](NC(=O)OC(C)(C)C)C(=O)N1C[C@H](Oc2cc(-c3ccccc3)nc3cc(OC)ccc23)C[C@H]1C(=O)N[C@]1(C(=O)NS(=O)(=O)c2ccccc2)C[C@H]1C=C [Compound I-12, (2S)-2-[[(1,1-dimethylethoxy)carbonyl]amino]-4-(2-propenoyl)methylamino-butanoyl-(4R)-4-[(7-methoxy-2-phenyl-4-quinolinyl)oxy]-L-prolyl-1-amino-2-ethenyl-N-(phenylsulfonyl)-(1R,2S)-cyclopropanecarboxamide] | < 10 | < 10 | D (IC50>1000 nM and <10,000 nM) | 10 to 100 | 1000 to 10000 | 10 to 100 | 1000 to 10000 | 100 to 1000 | 10 to 100 | 10 to 100 | – | –
2 | C=CC(=O)N[C@H](C)C(=O)N1C[C@H](Oc2cc(-c3ccccc3)nc3cc(OC)ccc23)C[C@H]1C(=O)N[C@]1(C(=O)NS(=O)(=O)c2ccccc2)C[C@H]1C=C [Compound I-46, (2S,4R)-1-((R)-2-acrylamidopropanoyl)-4-(7-methoxy-2-phenylquinolin-4-yloxy)-N-((1R,2S)-1-(phenylsulfonylcarbamoyl)-2-vinylcyclopropyl)pyrrolidine-2-carboxamide] | < 10 | < 10 | C (IC50>100 nM and ≦1000 nM) | < 10 | 100 to 1000 | < 10 | 10 to 100 | < 10 | < 10 | < 10 | – | –
3 | C=C[C@@H]1C[C@]1(NC(=O)[C@@H]1C[C@@H](Oc2cc(-c3ccccc3)nc3cc(OC)ccc23)CN1C(=O)[C@H](CCNC(=O)CCl)NC(=O)OC(C)(C)C)C(=O)NS(=O)(=O)c1ccccc1 [Compound I-4, (2S)-2-[[(1,1-dimethylethoxy)carbonyl]amino]-4-(chloroacetyl)amino-butanoyl-(4R)-4-[(7-methoxy-2-phenyl-4-quinolinyl)oxy]-L-prolyl-1-amino-2-ethenyl-N-(phenylsulfonyl)-(1R,2S)-cyclopropanecarboxamide] | < 10 | < 10 | D (IC50>1000 nM and <10,000 nM) | 10 to 100 | – | 10 to 100 | – | 100 to 1000 | 10 to 100 | 10 to 100 | 100 to 1000 | 100 to 1000
4 | C=CC(=O)NC[C@H](NC(=O)OC(C)(C)C)C(=O)N1C[C@H](Oc2cc(-c3ccccc3)nc3cc(OC)ccc23)C[C@H]1C(=O)N[C@]1(C(=O)NS(=O)(=O)C2CC2)C[C@H]1C=C [Compound I-35, tert-butyl-(S)-3-acrylamido-1-((2S,4R)-2-((1R,2S)-1-(cyclopropylsulfonylcarbamoyl)-2-vinylcyclopropylcarbamoyl)-4-(7-methoxy-2-phenylquinolin-4-yloxy)pyrrolidin-1-yl)-1-oxopropan-2-ylcarbamate] | < 10 | < 10 | C (IC50>100 nM and ≦1000 nM) | < 10 | 100 to 1000 | < 10 | 100 to 1000 | 100 to 1000 | < 10 | 10 to 100 | – | –
5 | C=C[C@@H]1C[C@]1(NC(=O)[C@@H]1C[C@@H](Oc2cc(-c3ccccc3)nc3cc(OC)ccc23)CN1C(=O)[C@H](CCN(C)C(=O)CCl)NC(=O)OC(C)(C)C)C(=O)NS(=O)(=O)c1ccccc1 [Compound I-9, (2S)-2-[[(1,1-dimethylethoxy)carbonyl]amino]-4-(chloroacetyl)methylamino-butanoyl-(4R)-4-[(7-methoxy-2-phenyl-4-quinolinyl)oxy]-L-prolyl-1-amino-2-ethenyl-N-(phenylsulfonyl)-(1R,2S)-cyclopropanecarboxamide] | < 10 | < 10 | C (IC50>100 nM and ≦1000 nM) | < 10 | – | < 10 | – | > 10000 | 10 to 100 | 10 to 100 | 100 to 1000 | 10 to 100
6 | C=C[C@@H]1C[C@]1(NC(=O)[C@@H]1C[C@@H](Oc2cc(-c3ccccc3)nc3cc(OC)ccc23)CN1C(=O)[C@H](CNC(=O)C(C)Br)NC(=O)OC(C)(C)C)C(=O)NS(=O)(=O)c1ccccc1 (stereo partly drawn) [Compound I-22, tert-butyl(S)-3-(2-bromopropanamido)-1-((2S,4R)-4-(7-methoxy-2-phenylquinolin-4-yloxy)-2-((1R,2S)-1-(phenylsulfonylcarbamoyl)-2-vinylcyclopropylcarbamoyl)pyrrolidin-1-yl)-1-oxopropan-2-ylcarbamate] | < 10 | < 10 | D (IC50>1000 nM and <10,000 nM) | 10 to 100 | 1000 to 10000 | 10 to 100 | 1000 to 10000 | > 10000 | 100 to 1000 | 100 to 1000 | – | –
7 | C=CC(=O)NCC(=O)N1C[C@H](Oc2cc(-c3ccccc3)nc3cc(OC)ccc23)C[C@H]1C(=O)N[C@]1(C(=O)NS(=O)(=O)C2CC2)C[C@H]1C=C [Compound I-39, (2S,4R)-1-(2-acrylamidoacetyl)-N-((1R,2S)-1-(cyclopropylsulfonylcarbamoyl)-2-vinylcyclopropyl)-4-(7-methoxy-2-phenylquinolin-4-yloxy)pyrrolidine-2-carboxamide] | < 10 | < 10 | C (IC50>100 nM and ≦1000 nM) | < 10 | 100 to 1000 | < 10 | 10 to 100 | 100 to 1000 | 10 to 100 | 10 to 100 | – | –
8 | C=CC(=O)N(C)C[C@H](NC(=O)OC(C)(C)C)C(=O)N1C[C@H](Oc2cc(-c3ccccc3)nc3cc(OC)ccc23)C[C@H]1C(=O)N[C@]1(C(=O)NS(=O)(=O)c2ccccc2)C[C@H]1C=C [Compound I-28, tert-butyl-(S)-1-((2S,4R)-4-(7-methoxy-2-phenylquinolin-4-yloxy)-2-((1R,2S)-1-(phenylsulfonylcarbamoyl)-2-vinylcyclopropylcarbamoyl)pyrrolidin-1-yl)-3-(N-methylacrylamido)-1-oxopropan-2-ylcarbamate] | < 10 | < 10 | D (IC50>1000 nM and <10,000 nM) | 100 to 1000 | 1000 to 10000 | 10 to 100 | 1000 to 10000 | 100 to 1000 | < 10 | 10 to 100 | – | –
